IC50 and inhibition data for 36 compounds are collected here from patent US7910600B2, “Therapeutic kinase modulators” (Cylene Pharmaceuticals, Inc., priority 2007, dated 2011).

One assay deals with T1, recombinant human CK2 (Homo sapiens, UniProt P68400).
T1 construct: purchased Upstate
Briefly: Cell-free CK2 assay. The format is biochemical. To be noted: for inhibition at 0.5 µM: read-out: CK2: % inh 500 nM. The procedure:
Modulatory activity of compounds described herein is assessed in vitro in cell-free CK2 assays. These assays are described hereafter.
Test compounds in aqueous solution are added at a volume of 10 microliters, to a reaction mixture comprising 10 microliters Assay Dilution Buffer (ADB; 20mM MOPS, pH 7.2, 25 mM beta-glycerolphosphate, 5 mM EGTA, 1 mM sodium orthovanadate and 1 mM dithiothreitol), 10 microliters of substrate peptide (RRRDDDSDDD (SEQ ID NO:4), dissolved in ADB at a concentration of 1 mM), 10 microliters of recombinant human CK2 (25 ng dissolved in ADB; Upstate). Reactions are initiated by the addition of 10 microliters of ATP Solution (90% 75 mM MgC12, 75 micromolar ATP dissolved in ADB; 10% [γ-^33P]ATP (stock 1 mCi/100 μl; 3000 Ci/mmol (Perkin Elmer) and maintained for 10 minutes at 30 degrees C. The reactions are quenched with 100 microliters of 0.75% phosphoric acid, then transferred to and filtered through a phosphocellulose filter plate (Millipore). After washing each well 5 times with 0.75% phosphoric acid, the plate is dried under vacuum for 5 min and, following the addition of 15 ul of scintillation fluid to each well, the residual radioactivity is measured using a Wallac […].

The test system of assay [1] is HCT-116 human colorectal carcinoma cells. Briefly: Cell proliferation assay (Alamar Blue), HCT-116. The format is cell-based. To be noted: HCT-116 cell line. The procedure: (§1) A representative cell-proliferation assay protocol using Alamar Blue dye (stored at 4° C., use 20 ul per well) is described hereafter.
(§2) 96-Well Plate Setup and Compound Treatment
(§3) • a. Split and trypsinize cells. • b. Count cells using hemocytometer. • c. Plate 4,000-5,000 cells per well in 100 μl of medium and seed into a 96-well plate according to the following plate layout. Add cell culture medium only to wells B10 to B12. Wells B1 to B9 have cells but no compound added.
(§4) • d. Add 100 μl of 2× drug dilution to each well in a concentration shown in the plate layout above. At the same time, add 100 μl of media into the control wells (wells B10 to B12). Total volume is 200 μl/well. • e. Incubate four (4) days at 37° C., 5% CO2 in a humidified incubator. • f. Add 20 μl Alamar Blue reagent to each well. • g. Incubate for four (4) hours at 37° C., 5% CO2 in a humidified incubator. • h. Record fluorescence at an excitation wavelength of 544 nm and emission wavelength of 590 nm using a microplate reader.
(§5) In the assays, cells are cultured with a test compound for approximately four days, the dye is then added to the cells and fluorescence of […] dye is detected after approximately four hours. Different types of cells can be utilized in the assays (e.g., HCT-116 human colorectal carcinoma cells, PC-3 human prostatic cancer cells and MiaPaca human pancreatic carcinoma cells).

A further assay has as its system K562. As to the kind of experiment: Cell proliferation assay (Alamar Blue), K562. It counts as cell-based. As to conditions: Homo sapiens; K562 cell line. The procedure:
as §1, §2, §3, §4, §5
(Resazurin is reduced to fluorescent resorufin, in cell work by metabolically active cells.)

The subject of another assay is MV-4-11. As to the kind of experiment: Cell proliferation assay (Alamar Blue), MV-4-11. The format is cell-based. To be noted: Homo sapiens, MV4-11; MV-4-11 cell line. The procedure: as §1, §2, §3, §4, §5
The subject of assay [2] is MiaPaca human pancreatic carcinoma cells. Briefly: Cell proliferation assay (Alamar Blue), MiaPaCa. It counts as cell-based. To be noted: MIA PaCa-2, MiaPaCa cell line. As to the method:
as §1, §2, §3, §4, §5

The test system of the next assay is BxPC3. Briefly: Cell proliferation assay (Alamar Blue), BxPC3. It counts as cell-based. As to conditions: Homo sapiens, BXPC-3; BxPC3 cell line; read-out: Bx-PC3. The procedure:
as §1, §2, §3, §4, §5

The next assay has as its system MDA-MB231. Briefly: Cell proliferation assay (Alamar Blue), MDA-MB231. The format is cell-based. As to conditions: Homo sapiens, MDA-MB-231; MDA-MB231 cell line. As to the method: as §1, §2, §3, §4, §5

T1 sequence (P68400 whole entry): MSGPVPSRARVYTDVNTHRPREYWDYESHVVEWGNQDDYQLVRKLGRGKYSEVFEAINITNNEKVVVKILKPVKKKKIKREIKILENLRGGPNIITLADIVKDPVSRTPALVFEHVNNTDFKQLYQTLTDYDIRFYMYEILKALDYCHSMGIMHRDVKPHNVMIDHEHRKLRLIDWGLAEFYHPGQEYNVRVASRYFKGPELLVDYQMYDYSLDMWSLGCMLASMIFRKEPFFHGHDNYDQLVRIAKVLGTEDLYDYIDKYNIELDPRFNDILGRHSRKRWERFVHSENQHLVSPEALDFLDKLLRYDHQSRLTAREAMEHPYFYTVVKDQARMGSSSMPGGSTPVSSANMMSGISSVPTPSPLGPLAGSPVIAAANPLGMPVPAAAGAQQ
T1 sequence (P67870 whole entry partner): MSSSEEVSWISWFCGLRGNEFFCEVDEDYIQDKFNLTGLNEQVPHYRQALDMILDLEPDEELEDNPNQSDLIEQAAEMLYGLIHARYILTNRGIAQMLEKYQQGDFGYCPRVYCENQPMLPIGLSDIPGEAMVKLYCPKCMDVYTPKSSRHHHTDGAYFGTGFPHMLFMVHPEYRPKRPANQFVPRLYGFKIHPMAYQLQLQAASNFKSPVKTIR

For `Cn1cc(-c2nc3cc(C(=O)O)ccc3c3cnccc23)cn1`, the IC50 at recombinant human CK2 is 0.004 µM; in assay [1], > 10 µM; in the assay on K562, > 10 µM; in the assay with MV-4-11 it was > 10 µM; in assay [2] it was > 10 µM; in the assay on BxPC3 it was > 10 µM. The IC50 in the assay with MDA-MB231 was > 10 µM. In addition, the inhibition at 0.5 µM on recombinant human CK2 worked out at 98%.

For the compound `NC(=O)c1ccc2c(c1)nc(-c1ccccc1)c1ccncc12`, the inhibition at 0.5 µM on recombinant human CK2 amounted to 27%. Also, the IC50 in assay [1] is > 10 µM; in the assay with K562 it was > 10 µM; in the assay with MV-4-11 it was 1.4 µM.

For the compound `CCCNC(=O)c1ccc2c(c1)nc(-c1ccccc1)c1ccncc12`, the inhibition at 0.5 µM at recombinant human CK2 was -26%. The IC50 (in assay [1]; with K562; in the assay on MV-4-11) was > 10 µM each time.

As for `O=C(NC1CC1)c1ccc2c(c1)nc(-c1ccccc1)c1ccncc12`, the inhibition at 0.5 µM on recombinant human CK2 is -9%. Also, the IC50 (in assay [1]; with K562; in the assay with MV-4-11) was > 10 µM in each case.

Take `CN(C)C(=O)c1ccc2c(c1)nc(-c1ccccc1)c1ccncc12`: the inhibition at 0.5 µM on recombinant human CK2 stood at 0%. Further, the IC50 (in assay [1]; with K562; in the assay with MV-4-11) was > 10 µM in each case.

With `Cn1cc(-c2nc3cc(C(N)=O)ccc3c3cnccc23)cn1`, the inhibition at 0.5 µM at recombinant human CK2 amounted to 7%. Besides, the IC50 in assay [1] was > 10 µM; with K562, > 10 µM; with MV-4-11, 2.9 µM.

Turning to `CCCNC(=O)c1ccc2c(c1)nc(-c1cnn(C)c1)c1ccncc12`, on recombinant human CK2, the inhibition at 0.5 µM is -21%. For the same compound, the IC50 (in assay [1]; with K562; in the assay on MV-4-11) was > 10 µM in each case.

As for `Cn1cc(-c2nc3cc(C(=O)NC4CC4)ccc3c3cnccc23)cn1`, the inhibition at 0.5 µM on recombinant human CK2 was -15%. Besides, the IC50 in assay [1] stood at 1 µM; with MV-4-11 it was 2.7 µM.

As to `CN(C)C(=O)c1ccc2c(c1)nc(-c1cnn(C)c1)c1ccncc12`, the inhibition at 0.5 µM on recombinant human CK2 was -13%. Moreover, the IC50 (in assay [1]; in the assay with K562; in the assay on MV-4-11) was > 10 µM throughout.

Take `CN1CCN(C(=O)c2ccc3c(c2)nc(-c2ccccc2)c2ccncc23)CC1`: on recombinant human CK2, the inhibition at 0.5 µM came out at 57%. Moreover, the IC50 (in assay [1]; in the assay with K562; in the assay with MV-4-11) was > 10 µM throughout.

`CN1CCCN(C(=O)c2ccc3c(c2)nc(-c2ccccc2)c2ccncc23)CC1`: the inhibition at 0.5 µM on recombinant human CK2 was -15%. Further, the IC50 (in assay [1]; with K562; with MV-4-11) was > 10 µM each time.

For the compound `CC(=O)Nc1cccc(-c2nc3cc(C(=O)O)ccc3c3cnccc23)c1`, the IC50 on recombinant human CK2 was 0.042 µM; in assay [1], > 10 µM; with K562, > 10 µM; in the assay with MV-4-11, > 10 µM; in assay [2] it was > 10 µM; in the assay on BxPC3, > 10 µM. Besides, in the assay on MDA-MB231, the IC50 was > 10 µM. For the same compound, the inhibition at 0.5 µM at recombinant human CK2 came out at 93%.

`Nc1cccc(-c2nc3cc(C(=O)O)ccc3c3cnccc23)c1`: the IC50 at recombinant human CK2 was 0.027 µM; in assay [1] it was > 10 µM; with MV-4-11 it was > 10 µM; in assay [2], > 10 µM; in the assay with BxPC3, > 10 µM; in the assay with MDA-MB231, > 10 µM. In addition, the inhibition at 0.5 µM at recombinant human CK2 turned out to be 97%.

As to `CN1CCCN(C(=O)c2ccc3c(c2)nc(-c2cccc(N)c2)c2ccncc23)CC1`, the inhibition at 0.5 µM at recombinant human CK2 was -21%. Further, the IC50 in assay [1] is > 10 µM.

For `Cc1cnc(CNC(=O)c2ccc3c(c2)nc(-c2cccc(N)c2)c2ccncc23)cn1`, the inhibition at 0.5 µM on recombinant human CK2 is -24%. Further, the IC50 in assay [1] was > 10 µM.

As for `Nc1cccc(-c2nc3cc(C(=O)NN4CCOCC4)ccc3c3cnccc23)c1`, the inhibition at 0.5 µM on recombinant human CK2 was -28%. In addition, the IC50 in assay [1] is > 10 µM.

Regarding `Nc1cccc(-c2nc3cc(C(=O)NCCN4CCCC4)ccc3c3cnccc23)c1`, the inhibition at 0.5 µM at recombinant human CK2 turned out to be 56%. The IC50 in assay [1] is > 10 µM.

Turning to `CC(=O)Nc1cccc(-c2nc3cc(C(=O)N4CCN(C)CC4)ccc3c3cnccc23)c1`, the inhibition at 0.5 µM at recombinant human CK2 stood at 6%. Further, the IC50 in assay [1] is > 10 µM.

With `CC(=O)Nc1cccc(-c2nc3cc(C(=O)N4CCCN(C)CC4)ccc3c3cnccc23)c1`, the inhibition at 0.5 µM at recombinant human CK2 was found to be 30%. Besides, the IC50 in assay [1] was > 10 µM.

For the compound `CC(=O)Nc1cccc(-c2nc3cc(C(=O)NCc4cnc(C)cn4)ccc3c3cnccc23)c1`, the inhibition at 0.5 µM at recombinant human CK2 was -6%. In assay [1], the IC50 is > 10 µM.

For `CC(=O)Nc1cccc(-c2nc3cc(C(=O)NN4CCOCC4)ccc3c3cnccc23)c1`, the inhibition at 0.5 µM at recombinant human CK2 worked out at 19%. Further, the IC50 in assay [1] is > 10 µM.

On to `CC(=O)Nc1cccc(-c2nc3cc(C(=O)NCCN4CCCC4)ccc3c3cnccc23)c1`, for which, on recombinant human CK2, the IC50 amounted to 0.144 µM and the inhibition at 0.5 µM was found to be 89%. Besides, the IC50 in assay [1] was > 10 µM.

Take `CC(=O)Nc1cccc(-c2nc3cc(C(=O)NCC4CCCCN4C)ccc3c3cnccc23)c1` (stereo not drawn): the inhibition at 0.5 µM on recombinant human CK2 was 40%. In addition, in assay [1], the IC50 is > 10 µM.

Take `COC(=O)c1ccc2c(c1)nc(-c1cnn(C)c1)c1nc(S(C)(=O)=O)ncc12`: the inhibition at 0.5 µM on recombinant human CK2 came out at 11%. The same compound showed an IC50 in assay [1] of 0.9 µM.

As for `Fc1ccc2c(c1)nc(-c1ccncc1)c1ccncc12`, at recombinant human CK2, the inhibition at 0.5 µM is -37%.

Turning to `Fc1ccc2c(c1)nc(-c1cccc(OC(F)(F)F)c1)c1ccncc12`, the inhibition at 0.5 µM on recombinant human CK2 is -35%.

Turning to `Fc1ccc2c(c1)nc(-c1ccccc1)c1ccncc12`, the inhibition at 0.5 µM on recombinant human CK2 was -51%.

Consider `Cc1noc(C)c1-c1nc2cc(C(=O)O)ccc2c2cnccc12`, for which the inhibition at 0.5 µM on recombinant human CK2 was determined as 52%.

On to `COC(=O)c1ccc2c(c1)nc(-c1c(C)noc1C)c1ccncc12`, for which the inhibition at 0.5 µM at recombinant human CK2 was -5%.

Take `COC(=O)c1ccc2c(c1)nc(-c1cscc1C)c1ccncc12`: the inhibition at 0.5 µM at recombinant human CK2 came to 4%.

Take `Cc1cscc1-c1nc2cc(C(=O)O)ccc2c2cnccc12`: on recombinant human CK2, the inhibition at 0.5 µM was 87%.

Take `O=C(O)c1ccc2c(c1)nc(-c1ccc(Cl)s1)c1ccncc12`: the inhibition at 0.5 µM at recombinant human CK2 was determined as 99%.

Take `O=C(O)c1ccc2c(c1)nc(-c1ccccc1)c1ccncc12` [5-phenylbenzo[c][2,6]naphthyridine-8-carboxylic acid]: the IC50 at recombinant human CK2 is 0.013 µM; in assay [1], > 10 µM; in the assay on K562 it was > 10 µM; with MV-4-11, 8.1 µM; in assay [2], > 10 µM; with BxPC3, > 10 µM. Further, the IC50 in the assay on MDA-MB231 was > 10 µM. For the same compound, at recombinant human CK2, the inhibition at 0.5 µM was determined as 97%.

Consider `COC(=O)c1ccc2c(c1)nc(-c1cnn(C)c1)c1ccncc12` [Methyl 5-(1-methyl-1H-pyrazol-4-yl)benzo[c][2,6]naphthyridine-8-carboxylate], for which the inhibition at 0.5 µM on recombinant human CK2 was -49%. Also, the IC50 is 2.5 µM in assay [1], > 10 µM in the assay with K562 and > 10 µM in the assay with MV-4-11.

On to `COC(=O)c1ccc2c(c1)nc(-c1ccccc1)c1ccncc12` [Methyl 5-phenylbenzo[c][2,6]naphthyridine-8-carboxylate], for which the inhibition at 0.5 µM at recombinant human CK2 is -34%. The IC50 in assay [1] is 2.9 µM; with K562, > 10 µM; in the assay with MV-4-11, > 10 µM.

Take `COC(=O)c1ccc2c(c1)nc(-c1ccccc1)c1nc(SC)ncc12` [methyl 3-(methylthio)-5-phenylpyrimido[4,5-c]quinoline-8-carboxylate]: the inhibition at 0.5 µM on recombinant human CK2 is -26%. Moreover, in assay [1], the IC50 came to 2 µM.
